Measurements published in patent US20250114345A1, “COMPOUNDS AND COMPOSITIONS AS CBP/P300 DEGRADERS AND USES THEREOF” (Oncopia Therapeutics, Inc. d/b/a/ SK Life Science Labs, priority 2023, published 2025).

Biological target: T1, p300 (Homo sapiens, UniProt Q09472)
T1 construct: host or cells: A549 P300 HiBit cells
Test: P300 degradation, HiBit technology in A549 P300 HiBit cells (2 h)
Format: cell-based
Conditions: 2 hrs post treatment; for Dmax: A549, A549 P300 HiBit cells; for DC50: A549 P300 HiBit cells
Summary of the method: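 HiBiT knock-in A549 cells received compound in serial dilution at 37 °C under 5% CO2. Remaining tagged protein was quantified by lytic HiBiT luminescence after 10 min shaking at room temperature, yielding potency and maximal degradation.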

T1 sequence (Q09472 whole entry): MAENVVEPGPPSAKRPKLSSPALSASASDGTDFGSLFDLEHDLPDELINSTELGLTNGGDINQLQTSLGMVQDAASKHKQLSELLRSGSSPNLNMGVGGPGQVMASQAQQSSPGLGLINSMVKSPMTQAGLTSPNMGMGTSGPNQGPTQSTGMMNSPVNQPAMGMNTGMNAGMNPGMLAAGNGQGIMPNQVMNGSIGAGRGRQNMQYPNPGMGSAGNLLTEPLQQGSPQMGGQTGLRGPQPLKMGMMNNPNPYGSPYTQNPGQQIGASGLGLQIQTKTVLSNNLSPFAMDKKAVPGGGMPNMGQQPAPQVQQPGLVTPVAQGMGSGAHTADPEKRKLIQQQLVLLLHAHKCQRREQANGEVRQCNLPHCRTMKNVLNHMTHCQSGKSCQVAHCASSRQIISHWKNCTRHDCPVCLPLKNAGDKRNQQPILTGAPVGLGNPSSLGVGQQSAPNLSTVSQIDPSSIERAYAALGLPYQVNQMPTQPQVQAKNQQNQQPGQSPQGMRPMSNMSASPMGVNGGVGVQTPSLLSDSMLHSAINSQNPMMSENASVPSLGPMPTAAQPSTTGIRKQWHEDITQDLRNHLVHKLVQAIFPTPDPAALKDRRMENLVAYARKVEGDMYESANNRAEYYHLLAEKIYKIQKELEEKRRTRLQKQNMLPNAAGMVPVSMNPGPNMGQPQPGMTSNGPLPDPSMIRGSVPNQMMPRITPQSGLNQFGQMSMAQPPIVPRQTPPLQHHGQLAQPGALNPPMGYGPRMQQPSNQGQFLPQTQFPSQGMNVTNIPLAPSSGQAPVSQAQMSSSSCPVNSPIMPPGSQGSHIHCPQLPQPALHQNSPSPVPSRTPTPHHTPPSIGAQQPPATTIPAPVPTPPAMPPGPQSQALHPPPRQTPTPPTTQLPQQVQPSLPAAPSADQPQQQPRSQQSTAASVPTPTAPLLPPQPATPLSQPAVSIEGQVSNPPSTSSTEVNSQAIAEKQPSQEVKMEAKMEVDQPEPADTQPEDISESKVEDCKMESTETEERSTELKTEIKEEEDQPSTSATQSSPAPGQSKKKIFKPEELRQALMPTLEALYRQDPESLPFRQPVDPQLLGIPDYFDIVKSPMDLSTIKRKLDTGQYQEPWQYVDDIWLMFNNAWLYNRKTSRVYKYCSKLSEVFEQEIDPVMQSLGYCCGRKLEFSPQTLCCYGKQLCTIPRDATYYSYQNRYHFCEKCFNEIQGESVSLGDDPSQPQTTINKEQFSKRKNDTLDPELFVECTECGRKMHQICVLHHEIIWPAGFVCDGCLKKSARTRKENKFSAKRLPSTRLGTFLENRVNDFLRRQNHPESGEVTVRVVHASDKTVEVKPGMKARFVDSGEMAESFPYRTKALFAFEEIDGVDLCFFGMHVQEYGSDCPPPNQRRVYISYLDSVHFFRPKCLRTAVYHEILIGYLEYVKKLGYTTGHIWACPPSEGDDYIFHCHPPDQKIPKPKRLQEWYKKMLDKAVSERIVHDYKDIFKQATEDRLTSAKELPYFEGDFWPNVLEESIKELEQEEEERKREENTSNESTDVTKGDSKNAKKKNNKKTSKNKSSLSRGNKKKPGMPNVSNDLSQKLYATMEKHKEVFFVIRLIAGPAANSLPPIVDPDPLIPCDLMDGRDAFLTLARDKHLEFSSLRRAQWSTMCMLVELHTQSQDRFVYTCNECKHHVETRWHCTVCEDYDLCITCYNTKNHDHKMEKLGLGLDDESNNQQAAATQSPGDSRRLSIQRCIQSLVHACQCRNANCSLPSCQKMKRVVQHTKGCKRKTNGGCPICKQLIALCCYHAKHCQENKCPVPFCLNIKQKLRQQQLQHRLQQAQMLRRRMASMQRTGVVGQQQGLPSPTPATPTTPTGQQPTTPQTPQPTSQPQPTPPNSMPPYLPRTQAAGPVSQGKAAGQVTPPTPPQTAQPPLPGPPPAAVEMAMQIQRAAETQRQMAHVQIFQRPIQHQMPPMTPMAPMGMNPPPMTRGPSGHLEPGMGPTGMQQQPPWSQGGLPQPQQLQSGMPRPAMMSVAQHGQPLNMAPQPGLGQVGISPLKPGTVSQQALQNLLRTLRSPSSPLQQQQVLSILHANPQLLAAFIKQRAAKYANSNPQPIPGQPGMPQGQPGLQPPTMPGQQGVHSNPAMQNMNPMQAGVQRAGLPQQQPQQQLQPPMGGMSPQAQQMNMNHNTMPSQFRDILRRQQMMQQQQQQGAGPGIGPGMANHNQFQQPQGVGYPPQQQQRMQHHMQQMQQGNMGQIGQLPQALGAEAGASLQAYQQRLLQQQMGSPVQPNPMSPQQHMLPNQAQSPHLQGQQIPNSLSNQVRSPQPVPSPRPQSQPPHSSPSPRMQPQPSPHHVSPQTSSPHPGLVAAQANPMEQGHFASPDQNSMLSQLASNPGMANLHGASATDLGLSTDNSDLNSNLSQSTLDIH

Row | Dmax [%] | DC50 [nM] | Compound
1 | 20 to 39 | 10 to 99 | CN1C(=O)C(C)(C)c2cc(-c3cccc4cc(-c5ccc(C(=O)NCC#Cc6ccc7occ(C8CCC(=O)NC8=O)c7c6)nc5)ncc34)ccc21 (centres unmarked) [Example A130, N-(3-(3-(2,6-dioxo-piperidin-3-yl)benzo-furan-5-yl)prop-2-yn-1-yl)-5-(8-(1,3,3-trimethyl-2-oxoindolin-5-yl)isoquinolin-3-yl)picolinamide]
2 | > 80 | 1 to 9.9 | Cc1cc(-c2ccc(N(C)c3cc(C(C)C)c4c(c3)n(C)c(=O)n4C)cn2)cnc1C(=O)NCC#Cc1ccc2occ(C3CCC(=O)NC3=O)c2c1 (centres unmarked) [Example A141, N-(3-(3-(2,6-dioxo-piperidin-3-yl)benzofuran-5-yl)prop-2-yn-1-yl)-5-((7-isopropyl-1,3-dimethyl-2-oxo-2,3-dihydro-1H-benzo [d]imidazol-5-yl)(methyl)amino)-5′-methyl-[2,3′-bipyridine]-6′-carboxamide]
3 | > 80 | < 1 | CN1CCN(c2ccc3c(c2)n(C)c(=O)n3C)c2cnc(-c3ccc(C(=O)NCC#Cc4cc5c(C6CCC(=O)NC6=O)nccc5o4)nc3)cc21 (centres unmarked) [Example A218, 5-(4-(1,3-dimethyl-2-oxo-2,3-dihydro-1H-benzo[d]imidazol-5-yl)-1-methyl-1,2,3,4-tetrahydropyrido[3,4-b]pyrazin-7-yl)-N-(3-(4-(2,6-dioxo-piperidin-3-yl)furo[3,2-c]pyridin-2-yl)prop-2-yn-1-yl)picolinamide]
4 | > 80 | 1 to 9.9 | CC(C)c1cc(-c2cccc3cc(-c4ccc(C(=O)NCC#Cc5cnc6occ(C7CCC(=O)NC7=O)c6c5)nc4)ncc23)cc2c1n(C)c(=O)n2C (centres unmarked) [Example A196, N-(3-(3-(2,6-dioxo-piperidin-3-yl)furo[2,3-b]pyridin-5-yl)prop-2-yn-1-yl)-5-(8-(7-isopropyl-1,3-dimethyl-2-oxo-2,3-dihydro-1H-benzo[d]imidazol-5-yl)isoquinolin-3-yl)picolinamide]
5 | > 80 | 1 to 9.9 | COc1cc(-c2cc3cccc(-c4cc(C(C)C)c5c(c4)n(C)c(=O)n5C)c3cn2)cnc1C(=O)NCC#Cc1ccc2c(c1)c(C1CCC(=O)NC1=O)nn2C (centres unmarked) [Example A30, N-(3-(3-(2,6-Dioxopiperidin-3-yl)-1-methyl-1H-indazol-5-yl)prop-2-yn-1-yl)-5-(8-(7-isopropyl-1,3-dimethyl-2-oxo-2,3-dihydro-1H-benzo[d]imidazol-5-yl)isoquinolin-3-yl)-3-methoxypicolinamide]
6 | 60 to 79 | 100 to 999 | CC(C)c1cc(-c2cccc3cc(-c4ccc(C(=O)NCC#Cc5ccc6c(C#N)cn(C7CCC(=O)NC7=O)c6c5)nc4)ncc23)cc2c1n(C)c(=O)n2C (centres unmarked) [Example A19, N-(3-(3-Cyano-1-(2,6-dioxopiperidin-3-yl)-1H-indol-6-yl)prop-2-yn-1-yl)-5-(8-(7-isopropyl-1,3-dimethyl-2-oxo-2,3-dihydro-1H-benzo[d]imidazol-5-yl)isoquinolin-3-yl)picolinamide]
7 | > 80 | 1 to 9.9 | Cc1cc2c(N3CCCc4nc(-c5ccc(C(=O)NCC#Cc6ccc7occ(C8CCC(=O)NC8=O)c7c6)nc5)ncc43)cc(C(C)C)cc2n(C)c1=O (centres unmarked) [Example B125, N-(3-(3-(2,6-dioxopiperidin-3-yl)benzofuran-5-yl)prop-2-yn-1-yl)-5-(5-(7-isopropyl-1,3-dimethyl-2-oxo-1,2-dihydroquinolin-5-yl)-5,6,7,8-tetrahydropyrido[3,2-d]pyrimidin-2-yl)picolinamide]
8 | > 80 | 1 to 9.9 | Cn1c(=O)n(C)c2cc(N3CCCc4cc(-c5ccc(C(=O)NCC#Cc6cc7c(C8CCC(=O)NC8=O)cccc7o6)nc5)nnc43)ccc21 (centres unmarked) [Example A217, 5-(8-(1,3-dimethyl-2-oxo-2,3-dihydro-1H-benzo[d]imidazol-5-yl)-5,6,7,8-tetrahydropyrido[2,3-c]pyridazin-3-yl)-N-(3-(4-(2,6-dioxo-piperidin-3-yl)benzofuran-2-yl)prop-2-yn-1-yl)picolinamide]
9 | > 80 | 1 to 9.9 | CCN(c1cnc(-c2cnc(C(=O)NCC#Cc3ccc4occ(C5CCC(=O)NC5=O)c4c3)c(C)c2)c(F)c1)c1cc(C(C)C)c2c(c1)n(C)c(=O)n2C (centres unmarked) [Example A137, N-(3-(3-(2,6-dioxo-piperidin-3-yl)benzofuran-5-yl)prop-2-yn-1-yl)-5-(ethyl(7-isopropyl-1,3-dimethyl-2-oxo-2,3-dihydro-1H-benzo[d]imidazol-5-yl)amino)-3-fluoro-5′-methyl-[2,3′-bipyridine]-6′-carboxamide]
10 | > 80 | < 1 | Cc1cc2c(N3CCN(C)c4cc(-c5ccc(C(=O)NCC#Cc6cc7c(C8CCC(=O)NC8=O)cccc7o6)nc5)ncc43)cc(C(C)C)cc2n(C)c1=O (centres unmarked) [Example B95, N-(3-(4-(2,6-dioxopiperidin-3-yl)benzofuran-2-yl)prop-2-yn-1-yl)-5-(4-(7-isopropyl-1,3-dimethyl-2-oxo-1,2-dihydroquinolin-5-yl)-1-methyl-1,2,3,4-tetrahydropyrido[3,4-b]pyrazin-7-yl)picolinamide]
11 | > 80 | 10 to 99 | Cc1cc(-c2ncc3c(n2)OCCN3c2ccc3c(c2)n(C)c(=O)n3C)cnc1C(=O)NCC#Cc1ccc2occ(C34CC(C3)C(=O)NC4=O)c2c1 [Example A262, 5-(5-(1,3-dimethyl-2-oxo-2,3-dihydro-1H-benzo[d]imidazol-5-yl)-6,7-dihydro-5H-pyrimido[4,5-b] [1,4]oxazin-2-yl)-N-(3-(3-(2,4-dioxo-3-azabicyclo[3.1.1]heptan-1-yl)benzofuran-5-yl)prop-2-yn-1-yl)-3-methylpicolinamide]
12 | < 20 | 10 to 99 | Cc1cc(-c2ncc3c(n2)OCCN3c2cc3c(c(N4CCOCC4)n2)n(C)c(=O)n3C)cnc1C(=O)NCC#Cc1ccc2occ(C3CCC(=O)NC3=O)c2c1 (centres unmarked) [Example A91, 5-(5-(1,3-dimethyl-4-morpholino-2-oxo-2,3-dihydro-1H-imidazo[4,5-c]pyridin-6-yl)-6,7-dihydro-5H-pyrimido[4,5-b][1,4]oxazin-2-yl)-N-(3-(3-(2,6-dioxopiperidin-3-yl)benzofuran-5-yl)prop-2-yn-1-yl)-3-methylpicolinamide]
13 | 40 to 59 | 10 to 99 | Cc1cc(-c2ccc(Nc3cc(C(C)C)c4c(c3)n(C)c(=O)n4C)cn2)cnc1C(=O)NCC#Cc1ccc2occ(C3CCC(=O)NC3=O)c2c1 (centres unmarked) [Example A125, N-(3-(3-(2,6-dioxo-piperidin-3-yl)benzofuran-5-yl)prop-2-yn-1-yl)-5-((7-isopropyl-1,3-dimethyl-2-oxo-2,3-dihydro-1H-benzo [d]imidazol-5-yl)amino)-5′-methyl-[2,3′-bipyridine]-6′-carboxamide]
14 | > 80 | 1 to 9.9 | Cc1cc2c(-c3cccc4cc(-c5ccc(C(=O)NCC#Cc6ccc7occ(C8CCC(=O)NC8=O)c7c6)nc5)ncc34)nc(N3CC(C)(O)C3)cc2n(C)c1=O (centres unmarked) [Example B101, N-(3-(3-(2,6-dioxopiperidin-3-yl)benzofuran-5-yl)prop-2-yn-1-yl)-5-(8-(7-(3-hydroxy-3-methylazetidin-1-yl)-1,3-dimethyl-2-oxo-1,2-dihydro-1,6-naphthyridin-5-yl)isoquinolin-3-yl)picolinamide]
15 | > 80 | < 1 | Cc1cc(N2CCN(C)c3cc(-c4ccc(C(=O)NCC#Cc5cc6c(C7CCC(=O)NC7=O)cccc6o5)nc4)ncc32)c2cc(C)c(=O)n(C)c2c1 (centres unmarked) [Example B40, N-(3-(4-(2,6-dioxopiperidin-3-yl)benzofuran-2-yl)prop-2-yn-1-yl)-5-(1-methyl-4-(1,3,7-trimethyl-2-oxo-1,2-dihydroquinolin-5-yl)-1,2,3,4-tetrahydropyrido[3,4-b]pyrazin-7-yl) picolinamide]
16 | < 20 | > 1000 | CCc1cc(Oc2ccc(-c3cnc(C(=O)NCC#Cc4cccc(NC5CCC(=O)NC5=O)c4)c(C)c3)nc2)c2cc(C)c(=O)n(C)c2c1 (centres unmarked) [Example B17, N-(3-(3-((2,6-Dioxopiperidin-3-yl)amino)phenyl)prop-2-yn-1-yl)-5-((7-ethyl-1,3-dimethyl-2-oxo-1,2-dihydroquinolin-5-yl)oxy)-5′-methyl-[2,3′-bipyridine]-6′-carboxamide]
17 | < 20 | > 1000 | Cc1cc(=O)n(C)c2cc(C3CCOCC3)cc(N3CCCc4nc(-c5ccc(C(=O)NCC#Cc6ccc7occ(C8CCC(=O)NC8=O)c7c6)nc5)ncc43)c12 (centres unmarked) [Example B80, 5-(5-(1,4-dimethyl-2-oxo-7-(tetrahydro-2H-pyran-4-yl)-1,2-dihydroquinolin-5-yl)-5,6,7,8-tetrahydropyrido[3,2-d]pyrimidin-2-yl)-N-(3-(3-(2,6-dioxopiperidin-3-yl)benzofuran-5-yl)prop-2-yn-1-yl)picolinamide]
18 | > 80 | 10 to 99 | Cc1cc2c(N3CCOc4cc(-c5ccc(C(=O)NCC#Cc6ccc7occ(C8CCC(=O)NC8=O)c7c6)nc5)c(F)cc43)cc(C(C)C)cc2n(C)c1=O (centres unmarked) [Example B91, N-(3-(3-(2,6-dioxopiperidin-3-yl)benzofuran-5-yl)prop-2-yn-1-yl)-5-(6-fluoro-4-(7-isopropyl-1,3-dimethyl-2-oxo-1,2-dihydroquinolin-5-yl)-3,4-dihydro-2H-benzo[b][1,4]oxazin-7-yl)picolinamide]
19 | > 80 | 1 to 9.9 | Cc1cc(-c2ncc(N(C)c3cc(C(C)C)c4c(c3)n(C)c(=O)n4C)cc2C#N)cnc1C(=O)NCC#Cc1ccc2occ(C3CCC(=O)NC3=O)c2c1 (centres unmarked) [Example A98, 3-cyano-N-(3-(3-(2,6-dioxopiperidin-3-yl)benzofuran-5-yl)prop-2-yn-1-yl)-5-((7-isopropyl-1,3-dimethyl-2-oxo-2,3-dihydro-1H-benzo[d]imidazol-5-yl)(methyl)amino)-5′-methyl-[2,3′-bipyridine]-6′-carboxamide]
